Measured values reported in US20010018416A1, “COMPOSITIONS AND METHODS FOR TREATING HEPATITIS-C” (priority 1997, published 2001).

What was measured:
[1] = tested on: A 549 cells (human small cell lung carcinoma); experiment: DNA fragmentation test (LDH released by dying cells measured by optic density) after TNF-α; format: cell-based; settings: A549; TNF-α 10 nanograms/ml; GMDP 1 and 2 μg/ml; 8 hours
Description: The LDH analysis procedure is described above. A 549 cells (human small cell lung carcinoma) were utilized for the DNA fragmentation test and treated with GMDP 1 ug/ml and with GMDP 2 ug/ml for 2 hours and then treated with human TNF-α (Sigma Corp., St. Louis, Mo.). FIGS. 8 and 9 are plots of the optical density measurements of two different scans each with six samples utilizing the DNA fragmentation procedure. […] TNF-α levels were 10 nanograms/ml for all samples, while samples 1-4 contained no GMDP, sample 5 contained 1 μg/ml GMDP and sample 6 contained 2 μg/ml GMDP. Sample 1 was analyzed after 0 hours, sample 2 analyzed after 2 hours, sample 3 analyzed after 4 hours, while samples 4, 5, and 6 were analyzed after 8 hours. Accordingly, only samples 5 and 6 from each scan measure cell protection after 8 hours. […] In other words, the higher purity GMDP drastically increases cell protection and antiapoptotic activity.

[2] = tested on: human CD4+ lymphocytes taken from AIDS patient; experiment: LDH assay of the inhibition of Fas antigen mediated apoptosis in vitro; format: cell-based; settings: LDH release 16 h after anti-Fas antibodies, FIG. 3
Description: The following cell lines were used for this assay: A549 (human lung carcinoma cells), A431 (human […]), L929 (mouse […]), human CD4+ lymphocytes taken from AIDS patient. All cells are commercially available from ATCC. They were maintained in DME medium supplemented with 10% FCS and glutamine in CO2 incubator. Lactate dehydrogenase (LDH) assay Cells were seeded into 35 mm Petri dishes and grown up to 70% confluency. Then they were treated with human recombinant antibodies against Fas antigen (gift from […] Co.) in the concentration indicated in the figures. In cases where the cells were not spontaneously sensitive to Fas ligand induced cytolysis, cycloheximide (CHX), a powerful blocker of the protein synthesis, which sensitizes the cells to anti Fas antibodies action, was used in concentration of 25 μg/ml. Sixteen hours after treatment, 20 μl samples of the cultured supernatants were removed and assayed for LDH release by the Cytotox 96 assay (Promega Biotech., Madison, Wis.)in accordance with the manufacturer's instructions. This methodology is based upon the fact that when cells are dying they are releasing LDH. […] These samples were assayed in triplicate on an EL340 Microplate reader (Bic) Tech Instruments Inc.) at 490 nm wave length. The average of these three readings was plated on the graphs (FIGS. 1, 2, 3 and 4).

hepatitis-C = tested on: hepatitis-C
Description: Twelve patients in the active stage of hepatitis-C were selected for this study. The study group consisted of eight females and four males between 36 and 57 years of age. […] The control powder contained vegetable oil, corn syrup solids, and lactose. Quality control (to check for product identity and purity) was done by HPLC through comparisons with those obtained from reference samples from Sigma Corp, St Louis, Mo. The GMDP powder was diluted with 10 ml sterile distilled water. The daily GMDP dosage ranged from 0.1-0.5 mg/kg of the patient's body weight for blastolysine 80-120 mg/kg of body weight. Statistical analysis were done with Epi-Info Statistical Package (Center for Disease Control and Prevention, Atlanta, Ga.) with two way comparison by the Fischer's exact test (two tailed). Eleven patients were orally administered GMDP at dosage of […] daily in a water solution for one or two months. One patient with 44000×1000 viral load and early liver cirrhosis was treated for one year. GMDP at dosage of 0.1-0.5 mg/kg daily was administered to 11 patients.

| Structure (SMILES) | optical density relative to cells exposed to GMDP of about 97.3% purity [1] | maximum inhibition of Fas Ag antibodies mediated cell lysis (reduction) [2] [%] | reduction in bilirubin concentration (hepatitis-C; 2 patients with elevated level) | decrease of LDH and GGTP activity (hepatitis-C; 7 patients who had elevated level) | effect on AST and APT activity (hepatitis-C; 7 patients who had elevated level of these enzymes) | fatigue and nausea (hepatitis-C; after first week, all patients who had these symptoms) | serum HPC RNA test, reduction of viral load (hepatitis-C; after the first three weeks of treatment, all patients) | overall clinical conditions (hepatitis-C; all patients treated, follow up period) | toxic effects (hepatitis-C; human, in vivo, po) | free iron test (hepatitis-C; one patient with high levels of free iron) | effect on alkaline phosphates activity (hepatitis-C; one patient with previously elevated level) | follow-up liver biopsy, pathology examination (hepatitis-C; one patient, end of one year treatment) | follow-up liver biopsy (hepatitis-C; two patients with diagnosed mild necrosis and fibrosis) |
| --- | --- | --- | --- | --- | --- | --- | --- | --- | --- | --- | --- | --- | --- |
| CC(=O)NC1C(OC2C(CO)OC(O)C(NC(C)=O)C2OC(C)C(=O)NC(C)C(=O)NC(CCC(=O)O)C(N)=O)OC(CO)C(O)C1O [GMDP of about 98.3% purity, N-acetyl-D-glucosaminyl-(β1-4)-N-acetylmuramyl-L-alanyl-D-isoglutamine] | less than ½ |  |  |  |  |  |  |  |  |  |  |  |  |
| CC(=O)NC1C(OC2C(CO)OC(O)C(NC(C)=O)C2OC(C)C(=O)NC(C)C(=O)NC(CCC(=O)O)C(N)=O)OC(CO)C(O)C1O [GMDP, N-acetyl-D-glucosaminyl-(β1-4)-N-acetylmuramyl-L-alanyl-D-isoglutamine] |  | 72 | 19%(3) | 34% (6) | beneficial effect | completely subsided | two-three fold reduction | improved | No patients experienced toxic effects | full normalization | Lowering effect | no sign of previous necrosis and cirrhosis | no necrosis or fibrotic change was detectable |
